This is an account of results in US10093629B2, “Heterocyclic compounds and their use as retinoid-related orphan receptor (ROR) gamma-T inhibitors” (Takeda Pharmaceutical Company Limited, priority 2014, dated 2018).

Test [1] deals with IL-17 production in human blood. The experiment in a line: Effect on IL-17 production in human blood. It counts as cell-based. The note with it: 72 h; 10 μM test compound; human peripheral blood, IL-23 and Dynabeads stimulation, 3 days; read-out: percent inhibition at 10 μM (IL-17 production). Here is the method:
Effect on IL-17 Production in Human Blood
The inhibitory effect of the test compound on IL-17 production in human blood was evaluated as follows. First, 150 μL of peripheral blood collected from healthy individuals using heparinized vacuum blood collection tubes was dispensed into each well of a 96-well plate (Corning), and 45 μL of RPMI 1640 medium (Gibco) containing 10% fetal bovine serum (FBS, Hyclone) and 30 μL of the test compound diluted with the medium were added to each well. The plate was then cultured for 30 min at 37° C. The cells were subsequently stimulated by adding 30 μL of 100 ng/mL human IL-23 (R&D) and 45 μL of Dynabeads Human (Invitrogen) to each well and culturing the plate for 3 days at 37° C. In wells without stimulation, 75 μL of RPMI 1640 medium containing 10% FBS was added instead of the IL-23 and Dynabeads solution. After culturing for 3 days, the culture supernatant was collected, and the amount of IL-17 in the supernatant was measured using an IL-17 ELISA kit (R&D).
The results (percent inhibition of IL-17 production with 10 μM of the test compound) measured by the above-mentioned method are shown in Table 8.

Test [2] deals with T1, RORγt (Homo sapiens, UniProt P51449).
T1 sequence (P51449 1-497 isoform P51449-2): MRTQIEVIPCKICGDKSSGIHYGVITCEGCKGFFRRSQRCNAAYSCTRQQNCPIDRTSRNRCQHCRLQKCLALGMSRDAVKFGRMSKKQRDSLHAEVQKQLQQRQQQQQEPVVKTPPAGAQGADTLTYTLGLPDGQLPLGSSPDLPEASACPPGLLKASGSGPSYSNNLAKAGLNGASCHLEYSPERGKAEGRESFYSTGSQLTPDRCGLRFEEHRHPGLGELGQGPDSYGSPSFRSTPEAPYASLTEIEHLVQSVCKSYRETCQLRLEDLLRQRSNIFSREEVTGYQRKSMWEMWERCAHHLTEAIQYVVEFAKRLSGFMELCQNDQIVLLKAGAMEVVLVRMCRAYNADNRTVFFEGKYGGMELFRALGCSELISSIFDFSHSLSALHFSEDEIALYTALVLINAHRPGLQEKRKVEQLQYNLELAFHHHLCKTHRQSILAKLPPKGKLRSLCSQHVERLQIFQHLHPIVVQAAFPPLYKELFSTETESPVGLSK
Kind of test: Cofactor recruitment test (Alpha Screen, biotinylated SRC-1 peptide). Format: biochemical. The note with it: read-out: signal value inhibitory rate at test compound 1 μM. Here is the method:
Cofactor Recruitment Test
Cofactor recruitment test was performed by Alpha Screen (Histidine Detection Kit, PerkinElmer) method. First, a test compound was diluted with an assay buffer (50 mM Tris-HCl (pH 7.5), 50 mM KCl, 1 mM DTT, 0.1% BSA) and added to a 384 well plate by 5 μL. […] The mixture was stood in a dark place for 1 hr, and the signal value was measured by Envision (PerkinElmer).

The target of test [3] is T1, RORγt. The experiment in a line: Jurkat reporter test (human IL-17 ROR response element luciferase, RORγt vector). Format: cell-based. The note with it: test compound 3 μM; Jurkat cells; read-out: luminescence level inhibitory rate at test compound 3 μM. Here is the method: The Jurkat cells used for the reporter test were cultured in a culture medium (RPMI (Invitrogen), 10% FCS (AusGeneX), 100 U/mL penicillin, 100 μg/mL streptomycin). On the day of the test, 4×10^7 cells were recovered by a centrifugal operation (1000 rpm, 5 min.) and suspended in PBS (phosphate buffered saline) (Invitrogen). Thereafter, the cells were recovered again by a centrifugal operation, and suspended in 2 mL of R buffer (NEON transfection kit, Invitrogen). […] Gene transfer was performed by Electroporation apparatus (NEON, Invitrogen) under the conditions of pulse voltage 1350 V, interval 10 milliseconds, number of times 3. The cells after gene transfer were suspended in 40 mL of a reaction medium (RPMI, 10% Lipid reduced FCS (HyClone), 10 mM HEPES (pH 7.5), 100 U/mL penicillin, 100 μg/mL streptomycin, 5 μM lovastatin), and plated in a 96 well plate by 90 μL. A test compound diluted with the reaction medium was added by 10 μL, and the cells were cultured overnight in an incubator. Bright-Glo (Promega) was added by 100 μL, and the mixture was stirred at room temperature for 10 min, and the luminescence level was measured by Envision (PerkinElmer).

Test [4] relates to IL-17A gene expression. The experiment in a line: Effect on IL-23-induced cytokine expression in mice. Format: in vivo, mouse. The conditions noted are these: 10 mg/kg oral, 30 min before and 8 hr after IL-23; ear of Balb/c mice; versus the negative control group. Here is the method:
Effect on IL-23-Induced Cytokine Expression in Mice
A mouse IL-23 solution (500 ng/10 μL, prepared by Takeda Pharmaceutical Company Limited) or PBS (10 μL, negative control group) was administered intradermally in the ear of Balb/c mice (Charles River Japan, male, 7 weeks old). Twenty-four hr after administration, the ear was resected under isoflurane anesthesia. The test compound was suspended in 0.5% methylcellulose and administered orally 30 min before and 8 hr after IL-23 administration.
RNA extraction from the ear tissue and quantitative PCR were performed as follows. Specifically, ear tissue 5 mm in diameter was punched from an area of the resected ear centering on the IL-23 injection site, and the tissue was immersed in RNAlater (QIAGEN) for at least 18 hr. The RNAlater-treated ear tissue was homogenized in 350 μL of RLT buffer (RNeasy mini kit, QIAGEN) and treated (55° C., 10 min) with Proteinase K (QIAGEN). Total RNA was then extracted according to the RNeasy mini kit protocol. The RNA thus obtained was then reverse transcribed into cDNA using the High-Capacity RNA-to-cDNA kit (Applied Biosystems), and the amount of each gene expressions was measured by real-time PCR (Viia7™, Applied Biosystems). The PCR buffer used was TaqMan Fast Advanced Master Mix (Applied Biosystems), and TaqMan Gene Expression Assays (Applied Biosystems) Mm00439618_m1 (IL-17A) and 4352341E (β-actin) were used for each gene detection. The IL-17A gene expression level was normalized to the β-actin gene expression level, and the percent inhibition of IL-17A gene expression with the test compound was then calculated.
The results (percent inhibition of IL-17A gene expression with oral administration of the test compound) measured by the above-mentioned method are shown in Table 9.

The target in test [5] is T1, RORγt. The experiment in a line: RORγt binding test using fluorescent-labeled synthetic ligand (TR-FRET). The note with it: read-out: binding inhibitory rate of fluorescent-labeled synthetic ligand to RORγt at test compound 1 μM. Here is the method: RORγt Binding Test using Fluorescent-Labeled Synthetic Ligand
The binding activity of the test compound to RORγt was measured by a time resolved fluorescence resonance energy transfer method (TR-FRET) utilizing histidine-tagged RORγt, fluorescent-labeled synthetic ligand and terbium-labeled anti-histidine tag antibody (Invitrogen). First, a test compound diluted with an assay buffer (20 mM Tris-HCl (pH 7.5), 100 mM NaCl, 1 mM DTT, 0.1% BSA) was added to a 384 well plate by 3 μL. Then, RORγt diluted with an assay buffer to 240 nM was added by 3 μL, after which fluorescent-labeled synthetic ligand diluted with the assay buffer to 12 μM was added by 3 μL, and the mixture was stood at room temperature for 20 min. Thereafter, a terbium-labeled anti-histidine tag antibody diluted with the assay buffer to 8 nM was added by 3 μL. The mixture was stood at room temperature for 20 min, and fluorescence intensity (excitation wavelength 320 nm, fluorescence wavelength 520 nm, delay time 100 microseconds) was measured by Envision (PerkinElmer).

Consider `COc1ccc2c(c1)CCN(C(=O)[C@H]1C[C@@H](C(=O)O)C1)[C@H]2C(=O)Nc1cc(F)c([Si](C)(C)C)c(F)c1` [Example 5, cis-3-(((1R)-1-((3,5-difluoro-4-(trimethylsilyl)phenyl)carbamoyl)-6-methoxy-3,4-dihydroisoquinolin-2(1H)-yl)carbonyl)cyclobutanecarboxylic acid], for which the inhibition at 10 µM in test [1] was 88.6%. Also, the values for the inhibition at 1 µM in test [2] and in test [5] were 93% and 102%, respectively. Moreover, the inhibition at 3 µM in test [3] came out at 100%. In addition, the “percent inhibition of IL-17A gene expression” value (“percent inhibition” below) in test [4] was 57%.
With `COc1ccc2c(c1)CCN(C(=O)[C@H]1C[C@@H](CC(=O)O)C1)[C@H]2C(=O)Nc1ccc([Si](C)(C)C)c(F)c1` [Example 33, (cis-3-(((1R)-1-((3-fluoro-4-(trimethylsilyl)phenyl)carbamoyl)-6-methoxy-3,4-dihydroisoquinolin-2(1H)-yl)carbonyl)cyclobutyl)acetic acid], the inhibition at 10 µM in test [1] is 78.5%. The inhibition at 1 µM in test [2] turned out to be 92%; in test [5], 102%. In addition, the inhibition at 3 µM in test [3] turned out to be 102%. In addition, the “percent inhibition” value in test [4] is recorded as 94%.
Turning to `COc1ccc2c(c1)CCN(C(=O)C1CC(CC(=O)O)C1)[C@H]2C(=O)Nc1cc(F)c([Si](C)(C)C)c(F)c1` (stereo partly drawn) [Example 4, (3-(((1R)-1-((3,5-difluoro-4-(trimethylsilyl)phenyl)carbamoyl)-6-methoxy-3,4-dihydroisoquinolin-2(1H)-yl)carbonyl)cyclobutyl)acetic acid], the inhibition at 10 µM in test [1] turned out to be 88.3%. For the same compound, the inhibition at 1 µM came out at 94% in test [2] and 102% in test [5]. Moreover, the inhibition at 3 µM in test [3] came out at 100%. In test [4], the “percent inhibition” value came to 86%.
Regarding `COc1ccc2c(n1)CCN(C(=O)[C@H]1C[C@H](CC(=O)O)C1)[C@H]2C(=O)Nc1cc(F)c([Si](C)(C)C)c(F)c1` [Example 28, (trans-3-(((5R)-5-((3,5-difluoro-4-(trimethylsilyl)phenyl)carbamoyl)-2-methoxy-7,8-dihydro-1,6-naphthyridin-6(5H)-yl)carbonyl)cyclobutyl)acetic acid], in test [1], the inhibition at 10 µM worked out at 89.1%. The inhibition at 1 µM in test [2] amounted to 87%; in test [5], 102%. In addition, the inhibition at 3 µM in test [3] was 101%. In test [4], the “percent inhibition” value came to 91%.
The corresponding values for `COc1ccc2c(c1)CCN(C(=O)[C@H]1C[C@@H]1CC(=O)O)[C@H]2C(=O)Nc1cc(F)c([Si](C)(C)C)c(F)c1` [Example 29, ((1R,2S)-2-(((1R)-1-((3,5-difluoro-4-(trimethylsilyl)phenyl)carbamoyl)-6-methoxy-3,4-dihydroisoquinolin-2(1H)-yl)carbonyl)cyclopropyl)acetic acid] are 74.9%, 91%, 102%, 102% and 73%.
`CCOc1ccc2c(c1)CCN(C(=O)[C@H]1C[C@@H](C(=O)O)C1)[C@H]2C(=O)Nc1cc(F)c([Si](C)(C)C)c(F)c1` [Example 8, cis-3-(((1R)-1-((3,5-difluoro-4-(trimethylsilyl)phenyl)carbamoyl)-6-ethoxy-3,4-dihydroisoquinolin-2(1H)-yl)carbonyl)cyclobutanecarboxylic acid]: the inhibition at 10 µM in test [1] came to 82.9%. Besides, the inhibition at 1 µM is 90% in test [2] and 102% in test [5]. For the same compound, the inhibition at 3 µM in test [3] amounted to 100%. Besides, the “percent inhibition” value in test [4] was 72%.
Regarding `COc1ccc2c(n1)CCN(C(=O)[C@H]1C[C@@H](CC(=O)O)C1)[C@H]2C(=O)Nc1cc(F)c([Si](C)(C)C)c(F)c1` [Example 23, (cis-3-(((5R)-5-((3,5-difluoro-4-(trimethylsilyl)phenyl)carbamoyl)-2-methoxy-7,8-dihydro-1,6-naphthyridin-6(5H)-yl)carbonyl)cyclobutyl)acetic acid], the inhibition at 10 µM in test [1] amounted to 85.9%. Also, the inhibition at 1 µM in test [2] was 87%; in test [5], 102%. The inhibition at 3 µM in test [3] was found to be 101%. For the same compound, the “percent inhibition” value in test [4] is reported as 96%.
